Earlier results as cited in publication PMC12737022, “Evaluations of Sex Differences in Dosimetry in Rats Following Perfluorohexanesulfonamide (PFHxSA) Oral Exposure” (Toxics, 2025).

Experiments:
[1] = set-up: method as in PMID 31078680; conditions: cited from earlier work; for Liver partitioning values: male rats
[2] = set-up: method as in PMID 40710967; conditions: SD rats following PFHxSA administration; cited from earlier work
[3] = set-up: method as in PMID 37756184; conditions: bariatric surgery patients; cited from earlier work

Structure (SMILES)	Share of the PFAS detected following dosing [2]	Liver partitioning values [1]	further results
O=C(O)C(F)(F)C(F)(F)C(F)(F)F [PFBA]	–	–	Liver partitioning summary values ([1]; across both sexes): 0.16–0.44
O=C(O)C1OC(NS(=O)(=O)C(F)(F)C(F)(F)C(F)(F)C(F)(F)C(F)(F)C(F)(F)F)C(O)C(O)C1O (stereo not drawn) [PFHxSA-glucuronide]	less than 3%	–	–
O=C(O)C(F)(F)C(F)(F)C(F)(F)C(F)(F)C(F)(F)C(F)(F)C(F)(F)F [PFOA, perfluorooctanoic acid, reference compound]	–	1.5 to 10.9	Human liver/plasma partitioning Kp [3]: 0.26
O=S(=O)(O)C(F)(F)C(F)(F)C(F)(F)C(F)(F)C(F)(F)C(F)(F)C(F)(F)C(F)(F)F [PFOS, perflurooctanesulfonic acid]	–	1.5 to 10.9	–
O=S(O)C(F)(F)C(F)(F)C(F)(F)C(F)(F)C(F)(F)C(F)(F)F [perfluorohexanesulfinic acid]	less than 3%	–	–
